In patent publication US5843916A, “Cyclic amp analogues, individually and in pairs, to inhibit neoplastic cell growth” (priority 1994, dated 1998):
Where two headings read alike, the source gives them in different places.

Key:
[1] = test system: breast (MCF-7) and colon (LS-174T) cancer cell lines; assay: Growth inhibition of breast and colon cancer cells (Table 1); assay type: cell-based, human; conditions: Homo sapiens
Procedure: The compounds of the present invention were added using 100X concentrated stock solutions. At desired times, cell counts in duplicate were performed on a Coulter counter after harvesting the cells with gentle trypsinization. […] Cell counts were performed on each of three or more separate experiments, and the average values are expressed as percent growth inhibition as compared with untreated control cells. | ^a The values of percentage growth inhibition were determined from th | doseresponse curve experiments. Each value represents an average value an | range (in parentheses) obtained from three or more separate experiments. | The cell counts in duplicate were performed at day 3 and day 4 after two | treatments (day 0 and day 2) with analogs (seeding on day -1).

[2] = test system: MCF-7ras breast cancer cell line; assay: Synergistic growth inhibition by analogue combinations (Table 2); assay type: cell-based, human; conditions: footnote of Table 2
Procedure: All breast cancer cell lines were grown in IMEM supplemented with 10% fetal bovine serum, HEPES 20 mM, penicillin-streptomycin, and extra glutamine. Colon carcinoma cell lines were grown in EMEM supplemented with 10% FBS, EMEM, NEAA, HEPES 20 mM, extra glutamine, and penicillin-streptomycin. The cells were grown at 37° C. in humidified incubators in an atmosphere of 5% CO2.
For cell growth experiments, 2-3×10^5 cells/60 mm dish were seeded, and 24 hours later (Day 0), the medium was removed, and fresh medium and the additives were added then and every 48 hours thereafter. The compounds of the present invention were added using 100X concentrated stock solutions. At desired times, cell counts in duplicate were performed on a Coulter counter after harvesting the cells with gentle trypsinization.
Synergism quotient was defined as the net growth inhibitory effect of the analogue combination divided by the sum of the net analogue effects on growth inhibition. A quotient of >1 indicates a synergistic effect, while a quotient of <1 indicates an antagonistic effect.
Synergism of growth inhibition was determined by
treatment of cells with C-6 analogues and C-8 analogues alone
and in combination at Day 0 and Day 2 and counting the cell
^a Data are expressed as percentage growth inhibition in reference to
the growth of untreated control cells and represent average values and
ranges (in parentheses) of duplicate cell counts on three or more separat
experiments. The values for percentage growth inhibition of each analogue
^b The synergism quotient was defined as previously described.

K-562 = assay: Growth inhibition of leukemic cells (Table 12); assay type: cell-based; conditions: Homo sapiens, K562
Molt-4 = assay: Growth inhibition of leukemic cells (Table 12); assay type: cell-based, human; conditions: Homo sapiens, MOLT-4; read-out: Inhibition of Growth IC50, Molt-4
[3] = test system: four leukemic cell lines (HL-60, K-562, myc-K562, Molt-4); assay: Growth inhibition of leukemic cell lines; assay type: cell-based, human; conditions: for times less potent than 8-Cl-cAMP: leukemic cell lines
HL-60 = assay: Growth inhibition of leukemic cells (Table 12); assay type: cell-based; conditions: Homo sapiens
myc-K562 = assay: Growth inhibition of leukemic cells (Table 12); assay type: cell-based; conditions: Homo sapiens
[4] = test system: breast and colon cancer lines (MCF-7, T-47D, ZR-75-1, MCF-7ras, MDA-MB-231, BT-20, HBL-100, LS-174T, WiDr, HT-29); conditions: millimolar concentrations; previously reported; cited from earlier work
[5] = test system: breast and colon cancer lines (MCF-7, T-47D, ZR-75-1, MCF-7ras, MDA-MB-231, BT-20, HBL-100, LS-174T, WiDr, HT-29); assay: Growth inhibition of breast and colon cancer lines (FIG. 1); assay type: cell-based, human; conditions: 0.5 mM, alone
[6] = test system: cultured human fibroblasts; conditions: cited from earlier work
[7] = test system: breast and colon cancer cells; assay: Effect on cell morphology (FIG. 2); assay type: cell-based, human; conditions: 100 μM; three to four days
From the text: The photographs were taken on Day 4, ×160.
Furthermore, the synergistic growth inhibitory effect of C-6 and C-8 analogue combinations was also reflected in the change in the cell morphology.

[8] = 72 h, 50 μM, day 3, average (range), read-out: % Growth Inhibition, Day 3
[9] = 96 h, 50 μM, day 4, average (range), read-out: % Growth Inhibition, Day 4
[10] = 50 micromolar, read-out: growth inhibition

| IC50 (K-562) [µM] | IC50 (Molt-4) [µM] | IC50 (HL-60) [µM] | IC50 (myc-K562) [µM] | Compound | inhibition at 50 µM [1, 8] [%] | inhibition at 50 µM [1, 9] [%] | inhibition at 50 µM [1, 10] [%] | percentage growth inhibition of each analogue when added alone [2] [%] | times less potent than 8-Cl-cAMP [3] | growth inhibition [4] | growth inhibitory effect [5] | growth inhibitory effect ([3]; 0.5 mM, alone) | DNA synthesis ([6]; added during first eight hours after serum addition) | DNA synthesis ([6]; added more than eight hours after serum addition) | cell morphology [7] |
| --- | --- | --- | --- | --- | --- | --- | --- | --- | --- | --- | --- | --- | --- | --- | --- |
| 100 | 100 | 100 | 100 | CNc1nc2c(N)ncnc2n1[C@@H]1O[C@@H]2COP(=O)(O)O[C@H]2[C@H]1O [8-methylamino-cAMP] | 14 | 15 | ≤ 20 | 10 | 5-20 times | – | – | – | – | – | – |
| – | – | – | – | CCCC(=O)Nc1ncnc2c1ncn2[C@@H]1O[C@@H]2COP(=O)(O)O[C@H]2[C@H]1O [N^6 -butyryl-cAMP] | 0 | 0 | – | – | – | growth inhibition only in the hormone-dependent breast cancer lines | – | – | – | – | – |
| – | – | – | – | CC(C)Cn1c(=O)n(C)c(=O)c2[nH]cnc21 [1-methyl-3-isobutylxanthine] | – | – | – | – | – | – | little or no growth inhibitory effect | little or no growth inhibitory effect | not delayed | inhibitory | – |
| 100 | 100 | 100 | 100 | CSc1nc2c(N)ncnc2n1[C@@H]1O[C@@H]2COP(=O)(O)O[C@H]2[C@H]1O [8-methylthio-cAMP] | 46 | 42 | 40 to 75 | – | 5-20 times | – | – | – | – | – | induced the morphological change |
